Data from article PMC11714206, “Massively Parallel Screening of Toll/Interleukin‐1 Receptor (TIR)‐Derived Peptides Reveals Multiple Toll‐Like Receptors (TLRs)‐Targeting Immunomodulatory Peptides” (Advanced Science, 2024).
“And” between values parts separate entries of the source, which are not always exact repeats. Equal entries are not always repeated.

Target: T1, MyD88^TIR (Homo sapiens, UniProt Q99836)
T1 construct: MyD88 (residues 148–296); 6xHis; made in house; host or cells: E. coli BL21 (DE3)
T1 sequence (Q99836 148-296): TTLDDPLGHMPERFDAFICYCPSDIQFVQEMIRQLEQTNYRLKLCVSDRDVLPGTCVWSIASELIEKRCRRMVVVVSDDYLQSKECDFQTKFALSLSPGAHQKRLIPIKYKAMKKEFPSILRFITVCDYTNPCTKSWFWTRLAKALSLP
Experiment: T‐Surf phage library (P8 and P3) selection against MyD88^TIR, four rounds, NGS read counts
Format: binding
Conditions: for P8_MyD88 Rank (after) / P8_MyD88 Rank (before): P8 library; for P3_MyD88 Rank (after) / P3_MyD88 Rank (before): P3 library; for Population: 4th round of selection against MyD88 TIR, share of NGS reads
Method in brief: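 Read counts come from NGS of phage pools enriched over four selection rounds on the plate‐coated TIR domain (5 µg mL^−1). Each round: 1 h phage binding at room temperature after 0.2% BSA blocking, Tween washes, acid elution, amplification in E. coli TG1 with M13KO7 helper.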

[1] = 4R selection against MyD88, rank after grouping
[2] = 4R selection against MyD88, rank before grouping
[3] = P8_MyD88: rank by count after grouping
[4] = P8_MyD88: rank by count before grouping
[5] = selection against MyD88, rank after grouping
[6] = selection against MyD88, rank before grouping
[7] = P8_MyD88 pool: P8 T-Surf phage library
[8] = selection against MyD88 TIR, rank by count after grouping
[9] = selection against MyD88 TIR, rank by count before grouping
[10] = P3_MyD88 pool: P3 T-Surf phage library
[11] = selection against MyD88, rank by count after grouping
[12] = selection against MyD88, rank by count before grouping
[13] = P8_MyD88: rank by NGS read count after grouping
[14] = P8_MyD88: rank by NGS read count before grouping
[15] = P3_MyD88: rank by count after grouping
[16] = P3_MyD88: rank by count before grouping

DPQDPDRNYERMVSRL
P8_MyD88 Rank (after) [1]: 661 | P8_MyD88 Rank (before) [2]: 2961

DPQARDCFYERLVSLF
Rank (after) [3]: 476 | Rank (before) [4]: 2687

SENYATSPWALDELLIAIEE
P3_MyD88 Rank (after) [5]: 519 | P3_MyD88 Rank (before) [6]: 2979

DPQDLQSLYEGLVSLV
Rank (after) [3]: 467 | Rank (before) [4]: 2944

NLSGWHILDGFLFDEF
Rank (after) [3]: 125 | Rank (before) [4]: 134 | Population [7]: 0.0131%

YTALNHSGFHTFRDND
P3_MyD88 Rank (after) [8]: 253 | P3_MyD88 Rank (before) [9]: 1702

YAFTGHLHRYLVPRGL
P3_MyD88 Rank (after) [8]: 248 | P3_MyD88 Rank (before) [9]: 1503

LVAQEISKKMKIFATI
Population [10]: 0.00495% and 0.00466%

EWIREQLHPALNERLP
P3_MyD88 Rank (after) [11]: 742 | P3_MyD88 Rank (before) [12]: 2176

DSFFWGRLLYSLHVTE
Rank (after) [13]: 970 | Rank (before) [14]: 3074

YALTCHLHRYLVQRGV
P3_MyD88 Rank (after) [8]: 204 | P3_MyD88 Rank (before) [9]: 1552

YTALTNSSFHTFRDNH
P3_MyD88 Rank (after) [5]: 514 | P3_MyD88 Rank (before) [6]: 1697

YTALTNRGFHTFLDND
Rank (after) [15]: 479 | Rank (before) [16]: 1631

SSFRERLCRLLELSKK
P3_MyD88 Rank (after) [8]: 235 | P3_MyD88 Rank (before) [9]: 3242

DPQDLECFYERRVSLF
Rank (after) [13]: 916 | Rank (before) [14]: 2845

DPQDLVWFYKRLFSQM
Rank (after) [13]: 977 | Rank (before) [14]: 2720

WVFASNLETFWARLYY
P8_MyD88 Rank (after) [1]: 599 | P8_MyD88 Rank (before) [2]: 1388

YLLRSLFQTLFPRRTE
Rank (after) [13]: 1013 | Rank (before) [14]: 2020

LGYHWLNWESFVGIED
P8_MyD88 Rank (after) [5]: 547 | P8_MyD88 Rank (before) [6]: 3345

NELVHVWCCKANSQAG
Rank (after) [15]: 420 | Rank (before) [16]: 3407

SSLREGLWRLLELGKK
P3_MyD88 Rank (after) [1]: 597 | P3_MyD88 Rank (before) [2]: 3255

SSFREGLCRLLELSKK
Population [10]: 0.0032%

NQWRNAQTAAANLNGW
P3_MyD88 Rank (after) [8]: 256 | P3_MyD88 Rank (before) [9]: 3525

FFSGFRELEDFISKLW
Rank (after) [3]: 105 | Rank (before) [4]: 108 | Population [7]: 0.02%

RGFHWTEWENFVDIED
Rank (after) [13]: 968 | Rank (before) [14]: 3399

DWVWDYLLQILHARELF
Rank (after) [13]: 995 | Rank (before) [14]: 2450

LGYISIVRGYFVGIER
P8_MyD88 Rank (after) [5]: 486 | P8_MyD88 Rank (before) [6]: 3337

GTFIDYLYHRLMEEGI
Rank (after) [3]: 107 | Rank (before) [4]: 113 | Population [7]: 0.02%

YTALTNSGFHTFRDHE
P3_MyD88 Rank (after) [8]: 227 | P3_MyD88 Rank (before) [9]: 1676

YLKWGYPWFGIVCVL
Rank (after) [15]: 166 | Rank (before) [16]: 855

EWIREQLRPALDELVL
Rank (after) [15]: 165 | Rank (before) [16]: 648

YTALTNSGVHTFLDND
P3_MyD88 Rank (after) [8]: 206 | P3_MyD88 Rank (before) [9]: 1688

WALDELLQLQHARELF
P8_MyD88 Rank (after) [5]: 561 | P8_MyD88 Rank (before) [6]: 1431

YARSDDNYYYWVTHVLLRHL
P8_MyD88 Rank (after) [5]: 507 | P8_MyD88 Rank (before) [6]: 1764

ELDFSHFWLFEGHATGEA
Rank (after) [3]: 127 | Rank (before) [4]: 141 | Population [7]: 0.0116%

DPQDLDCFYERLVSLL
Rank (after) [3]: 169 | Rank (before) [4]: 1082

DPHDLEWVYERLVSLF
Rank (after) [13]: 913 | Rank (before) [14]: 2603

YTALTNMSFHTFRDNY
P3_MyD88 Rank (after) [11]: 677 | P3_MyD88 Rank (before) [12]: 1653

SSFLQHPWRLQKLSKK
Rank (after) [15]: 399 | Rank (before) [16]: 3123

EWIREQLRPALKERLP
Population [10]: 0.00466%

SNFREGLWRQQELSKK
Rank (after) [15]: 438 | Rank (before) [16]: 3282

KEREFGAQRAGKWRAA
P3_MyD88 Rank (after) [1]: 670 | P3_MyD88 Rank (before) [2]: 3663

NDLVHVWSSKANSLVG
Population [10]: 0.00495%

PQDLDWFYERLVSQM
P8_MyD88 Rank (after) [11]: 716 | P8_MyD88 Rank (before) [12]: 3426

WALDELLKFCMRMKP
P8_MyD88 Rank (after) [5]: 520 | P8_MyD88 Rank (before) [6]: 1471

YTALPNSGFHTFRDNN
P3_MyD88 Rank (after) [8]: 257 | P3_MyD88 Rank (before) [9]: 1636

LVAHEISKKLKNFPTI
P3_MyD88 Rank (after) [5]: 518 | P3_MyD88 Rank (before) [6]: 2289

YLKCGYPCFCDRLRFA
P3_MyD88 Rank (after) [1]: 620 | P3_MyD88 Rank (before) [2]: 1566

SSFREGQWCLMELCKK
P3_MyD88 Rank (after) [8]: 280 | P3_MyD88 Rank (before) [9]: 3218

QEVEGWRDALTKVASM
P3_MyD88 Rank (after) [8]: 226 | P3_MyD88 Rank (before) [9]: 2893

YTALTNCGFHTFRDNV
P3_MyD88 Rank (after) [8]: 208 | P3_MyD88 Rank (before) [9]: 1649

DPQELDWYYERLVSLF
P8_MyD88 Rank (after) [8]: 241 | P8_MyD88 Rank (before) [9]: 2986

LKAESCRQALEKSGKR
P3_MyD88 Rank (after) [1]: 631 | P3_MyD88 Rank (before) [2]: 2533

DPQDLDCFYERLVNLF
Rank (after) [3]: 408 | Rank (before) [4]: 2740

TSHLHRAWRLNELRTY
P3_MyD88 Rank (after) [8]: 284 | P3_MyD88 Rank (before) [9]: 3294

DPQDLDWFLNVWLTW
P8_MyD88 Rank (after) [5]: 575 | P8_MyD88 Rank (before) [6]: 2743

ELDGDFGRNLWDLWRL
P8_MyD88 Rank (after) [8]: 249 | P8_MyD88 Rank (before) [9]: 477

LKWGGSCLSIKLAYAM
Rank (after) [15]: 445 | Rank (before) [16]: 2411

EWVKNSLLQYLDSQFE
Rank (after) [3]: 151 | Rank (before) [4]: 166 | Population [7]: 0.00886%

RKGDLISDELRIPLEE
P3_MyD88 Rank (after) [5]: 526 | P3_MyD88 Rank (before) [6]: 2656

LGYHWKEWEHFVGIED
Rank (after) [13]: 1028 | Rank (before) [14]: 3310

ARFKDMIINKWRTALKERLP
P3_MyD88 Rank (after) [11]: 744 | P3_MyD88 Rank (before) [12]: 1964

GWAWDYLLPNLEGPAG
P8_MyD88 Rank (after) [11]: 703 | P8_MyD88 Rank (before) [12]: 2275

WIWEKLKYALPHRYEP
P3_MyD88 Rank (after) [1]: 640 | P3_MyD88 Rank (before) [2]: 1424

VDPTHIRNQTGRYEKA
P3_MyD88 Rank (after) [1]: 642 | P3_MyD88 Rank (before) [2]: 1768

LKEEHCHQALEKAGKL
Rank (after) [15]: 460 | Rank (before) [16]: 2535

LGYHWIAWECFVGIED
Rank (after) [3]: 426 | Rank (before) [4]: 3247

WALDDLLQILQARELF
Rank (after) [13]: 988 | Rank (before) [14]: 1523

WALNELQQILHARELF
Rank (after) [3]: 445 | Rank (before) [4]: 1549

DPQDLDCFDERLGSRV
P8_MyD88 Rank (after) [1]: 627 | P8_MyD88 Rank (before) [2]: 2697

DHHLICRVAKRLNRKFW
Rank (after) [15]: 129 | Rank (before) [16]: 631

DPQELDWIYQRLVSLF
P8_MyD88 Rank (after) [11]: 714 | P8_MyD88 Rank (before) [12]: 2987

LNVESWRQALERAGKL
Rank (after) [15]: 187 | Rank (before) [16]: 2402

SLLYDHLRWLGIRAFL
P8_MyD88 Rank (after) [5]: 541 | P8_MyD88 Rank (before) [6]: 3759

GEDTRYTYRPSACDP
P3_MyD88 Rank (after) [11]: 730 | P3_MyD88 Rank (before) [12]: 1850

YAFTCHLQRYLVQRGV
Rank (after) [15]: 118 | Rank (before) [16]: 1545

LGYHWMEWEYVVGIED
Rank (after) [13]: 960 | Rank (before) [14]: 3299

DPQVRVWFYERLVSLF
P8_MyD88 Rank (after) [11]: 755 | P8_MyD88 Rank (before) [12]: 2659

DLCDILSQNGIPTFFD
P8_MyD88 Rank (after) [5]: 534 | P8_MyD88 Rank (before) [6]: 2582

DSQSSLLKGEADLVGQ
P3_MyD88 Rank (after) [11]: 736 | P3_MyD88 Rank (before) [12]: 2071

EWMREQLRPPLKERLP
Rank (after) [15]: 421 | Rank (before) [16]: 2179

IDDDHLTYLVRLLYSL
P8_MyD88 Rank (after) [1]: 607 | P8_MyD88 Rank (before) [2]: 3631

RVAHEISTKMKIFATI
P3_MyD88 Rank (after) [5]: 559 | P3_MyD88 Rank (before) [6]: 2682

RTLLENLWASVDISHK
P3_MyD88 Rank (after) [11]: 732 | P3_MyD88 Rank (before) [12]: 2643

RFWERLRYMIPEVSHQ
P3_MyD88 Rank (after) [1]: 598 | P3_MyD88 Rank (before) [2]: 2545

YLLLSVFQTIFARRTD
Population [7]: 0.00771%

SENYASSSWALTELVH
P3_MyD88 Rank (after) [11]: 723 | P3_MyD88 Rank (before) [12]: 2958

LKEESWRRAQEKAGKL
P3_MyD88 Rank (after) [5]: 531 | P3_MyD88 Rank (before) [6]: 2536

NQWRNALIAAVNLSGC
P3_MyD88 Rank (after) [11]: 700 | P3_MyD88 Rank (before) [12]: 3485

SSLLEGRWALLELSKK
Rank (after) [15]: 459 | Rank (before) [16]: 3253

AVDKGIDKIQTPLKNA
Rank (after) [15]: 430 | Rank (before) [16]: 1896

LKVESCRQALEKTGKL
Rank (after) [15]: 181 | Rank (before) [16]: 2473

QDLEQFYERLVSLI
P8_MyD88 Rank (after) [11]: 685 | P8_MyD88 Rank (before) [12]: 3567

DHHLDLPRGKAIKPVILG
Population [10]: 0.00291%

YYLDPSHLRKQSGESERL
P3_MyD88 Rank (after) [11]: 728 | P3_MyD88 Rank (before) [12]: 1459

YASYDDNDYYWLTNVLLRLL
P8_MyD88 Rank (after) [11]: 710 | P8_MyD88 Rank (before) [12]: 1778

DPQVLEWIYARLFSQM
P8_MyD88 Rank (after) [1]: 649 | P8_MyD88 Rank (before) [2]: 2649

LVAHEITPSLFKAIKE
Rank (after) [15]: 161 | Rank (before) [16]: 676

DPQVLEWLYKRLFSQM
P8_MyD88 Rank (after) [11]: 677 | P8_MyD88 Rank (before) [12]: 2648
